For one series, the system named is tibias of rats. The settings on record: titanium implants in tibias, daily into the abdominal cavity; cited from earlier work.
The test system of another series is bones of rats. The settings on record: calcium sulfate carrier disks, eight weeks, compared to control group; cited from earlier work.
In another series the test system is parietal bone of rabbits. As to conditions: parietal bone fractures, collagen sponges; cited from earlier work.
Another series relates to jawbones of rats. As to conditions: jawbone fractures, gelatin sponges; cited from earlier work.
Series [1] can be described thus: Solubility in ethanol and ethanol/water mixtures. In kind it is physicochemical.

On to `CCC(C)(C)C(=O)O[C@H]1C[C@@H](C)C=C2C=CC(C)[C@H](CC[C@@H]3C[C@@H](O)CC(=O)O3)[C@H]21` (stereo in doubt) [simvastatin, [(1S,3R,7R,8S,8aR)-8-[2-[(2R,4R)-4-hydroxy-6-oxo-oxan-2-yl]ethyl]-3,7-dimethyl-1,2,3,7,8,8a-hexahydronaphthalen-1-yl] 2,2-dimethylbutanoate], for which, in the series with tibias of rats, the “bone density around the implant” value is reported as “significant increase”. Further, in the series with bones of rats, the bone density result was “significant increase”, the bone mineral density entry is listed as “significant increase” and the “mineral content of the bones” value was “significant increase”. Further, the “formation of new bone” value in the series with parietal bone of rabbits was “accelerated formation of new bone”. Besides, in the series with jawbones of rats, the “bone density above that of the control group receiving no active ingredient” value was 190-240% and the “formation of new bone in histological studies” value is “enhanced formation of new bone was detectable”.

In the case of `CCC(C)(C)C(=O)O[C@H]1C[C@@H](C)C=C2C=C[C@H](C)[C@H](CC[C@@H](O)C[C@@H](O)CC(=O)O)[C@H]21` [open-chain acid form of simvastatin], the solubility in water entry was “water-soluble”. Moreover, the “ethanol content of the ethanol/water mixture in which the substance dissolves” value in series [1] came out at 25 % ethanol.

(Values after patent publication US8414958B2, “Implant and method for the manufacture thereof” (Thommen Medical AG, priority 2008, dated 2013).)
